Measured values from ChEMBL document CHEMBL3098116, “Synthesis and biological evaluation of the pirfenidone derivatives as antifibrotic agents” (Bioorg Med Chem Lett, 2014).

Key:
MRC5 = assay: Antifibrotic activity in human MRC5 cells assessed as inhibition of cell growth after 24 hrs by MTT assay; type: functional, cell-based; conditions: MRC5, 24 h
[1] = target: T1, Mitogen-activated protein kinase 14 (Homo sapiens, UniProt Q16539); assay: Inhibition of p38alpha (unknown origin) up to 60 mins by ADP-Glo assay
T1 sequence (Q16539 whole entry): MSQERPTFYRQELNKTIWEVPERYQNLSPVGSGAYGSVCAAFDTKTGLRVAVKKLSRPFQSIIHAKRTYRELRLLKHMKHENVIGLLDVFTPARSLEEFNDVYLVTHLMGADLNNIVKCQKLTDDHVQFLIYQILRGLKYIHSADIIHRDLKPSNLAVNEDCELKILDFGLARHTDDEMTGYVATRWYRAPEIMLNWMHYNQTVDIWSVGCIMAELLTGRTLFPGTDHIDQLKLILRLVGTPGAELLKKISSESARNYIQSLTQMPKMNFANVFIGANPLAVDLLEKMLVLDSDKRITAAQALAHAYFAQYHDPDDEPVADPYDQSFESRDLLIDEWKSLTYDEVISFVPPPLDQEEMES

[2] = target: T1, Mitogen-activated protein kinase 14; assay: Ratio of pirfenidone IC50 for compound IC50 for p38alpha (unknown origin) up to 60 mins by ADP-Glo assay

| Compound | IC50 (MRC5) | IC50 [1] | Ratio IC50 [2] |
| --- | --- | --- | --- |
| Cc1ccc(=O)n(-c2ccc(OCCCCN3CCCC3)cc2)c1 | 1770 µM |  |  |
| Cc1ccc(=O)n(-c2ccc(OCCCCCN3CCOCC3)cc2)c1 | 2590 µM |  |  |
| Cc1ccc(=O)n(-c2ccc(OCCN3CCCC3)cc2)c1 | 3780 µM |  |  |
| Cc1ccc(=O)n(-c2ccc(OCCCCN3CCN(C)CC3)cc2)c1 | 2330 µM |  |  |
| Cc1ccc(=O)n(-c2ccc(OCCCCCN3CCCC3)cc2)c1 | 1470 µM |  |  |
| Cc1ccc(=O)n(-c2ccc(OCCCCN(C)C)cc2)c1 | 1800 µM |  |  |
| Cc1ccc(=O)n(-c2ccc(OCCCCN3CCCCC3)cc2)c1 | 3290 µM | 5.21 µM |  |
| Cc1ccc(=O)n(-c2ccccc2)c1 [PIRFENIDONE] | 14400 µM | 165 µM |  |
| Cc1ccc(=O)n(-c2ccc(OCCCCCN3CCCCC3)cc2)c1 | 3670 µM | 16.2 µM |  |
| CCN(CC)CCCCOc1ccc(-n2cc(C)ccc2=O)cc1 | 2160 µM |  |  |
| Cc1ccc(=O)n(-c2ccc(OCCCN(C)C)cc2)c1 | 5220 µM | 14.2 µM |  |
| Cc1ccc(=O)n(-c2ccc(OCCCN3CCCCC3)cc2)c1 | 2550 µM | 4.07 µM | 40 |
| Cc1ccc(=O)n(-c2ccc(OCCCN3CCN(C)CC3)cc2)c1 | 4360 µM |  |  |
| Cc1ccc(=O)n(-c2ccc(OCCCCN3CCOCC3)cc2)c1 | 3030 µM |  |  |
| Cc1ccc(=O)n(-c2ccc(OCCCN3CCCC3)cc2)c1 | 3000 µM |  |  |
| Cc1ccc(=O)n(-c2ccc(OCCCCCN3CCN(C)CC3)cc2)c1 | 3410 µM |  |  |
| Cc1ccc(=O)n(-c2ccc(OCCCCCN(C)C)cc2)c1 | 2980 µM |  |  |
| CCN(CC)CCCCCOc1ccc(-n2cc(C)ccc2=O)cc1 | 4350 µM |  |  |
| Cc1ccc(=O)n(-c2ccc(OCCN3CCCCC3)cc2)c1 | 2480 µM | 54.3 µM |  |
| Cc1ccc(=O)n(-c2ccc(OCCCN3CCOCC3)cc2)c1 | 5280 µM |  |  |
| CCN(CC)CCCOc1ccc(-n2cc(C)ccc2=O)cc1 | 2100 µM |  |  |
| Cc1ccc(=O)n(-c2ccc(OCCN3CCN(C)CC3)cc2)c1 | 1360 µM |  |  |
| Cc1ccc(=O)n(-c2ccc(OCCN3CCOCC3)cc2)c1 | 7640 µM |  |  |
| Cc1ccc(=O)n(-c2ccc(OCCN(C)C)cc2)c1 | 6880 µM |  |  |
| CCN(CC)CCOc1ccc(-n2cc(C)ccc2=O)cc1 | 6200 µM |  |  |
